Experimental data reported in patent publication US20070161592A1, “Method of treating fear” (priority 2005, published 2007).

Assays:
[1] = tested on: pyramidal neurons in layer II/III of ACC slices; experiment: LTP induced by pairing training, whole-cell patch-clamp recordings in ACC slices; format: cell-based, mouse; conditions: for effect on LTP induced by pairing training: FIG. 3
Method: Experiments were performed in a recording chamber on the stage of an Axioskop 2FS microscope with infrared DIC optics for visualizing whole-cell patch clamp recordings. EPSCs were recorded from layer II-III neurons using an Axon 200B amplifier (Axon Instruments, CA) and stimulations were delivered using a bipolar tungsten stimulating electrode placed in layer V of the ACC. In hippocampal slices, EPSCs were evoked by stimulating the Schaffer collateral-commissural pathway. EPSCs were induced by repetitive stimulations at 0.02 Hz and neurons were voltage clamped at −70 mV. […] The first protocol involved paired presynaptic 80 pulses at 2 Hz with postsynaptic depolarization at +30 mV (referred to as pairing training). The second involved paired 3 presynaptic stimuli that caused 3 EPSPs (10 ms ahead) with 3 postsynaptic APs at 30 Hz, paired 15 times every 5 s (named as EPSPs-APs protocol). The third involved theta-burst stimulation (5 trains of burst with 4 pulses at 100 Hz, at 200 ms interval; repeated 4 times at intervals of 10 s; named as TBS). The NMDAR-mediated component of EPSCs was pharmacologically isolated in Mg^2+-free ACSF containing: CNQX (20 μM), glycine (1 μM) and picrotoxin (100 μM). […] Neurons were voltage clamped at −60 mV and NMDARs-mediated EPSCs were evoked at 0.05 Hz. Picrotoxin (100 μM) was always present to block GABAA receptor-mediated inhibitory synaptic currents. The access resistance was 15-30 MΩ and was monitored throughout the experiment. […] Results are expressed as means±SEM. Statistical comparisons were performed using the Student t-test.
Whole-cell patch-clamp recordings were conducted in visually identified pyramidal neurons in layer II/III of ACC slices. Pyramidal neurons were identified by injecting depolarized currents into neurons to induce action potentials. […] Pyramidal neurons were also identified based on the pyramid shape of their somata by putting Lucifer yellow into the intracellular solution (FIG. 1A).

[2] = tested on: NR2B siRNA electroporated ACC neurons; experiment: LTP in siRNA electroporated ACC neurons; format: cell-based, mouse
Method: Experiments were performed in a recording chamber on the stage of an Axioskop 2FS microscope with infrared DIC optics for visualizing whole-cell patch clamp recordings. EPSCs were recorded from layer II-III neurons using an Axon 200B amplifier (Axon Instruments, CA) and stimulations were delivered using a bipolar tungsten stimulating electrode placed in layer V of the ACC. In hippocampal slices, EPSCs were evoked by stimulating the Schaffer collateral-commissural pathway. EPSCs were induced by repetitive stimulations at 0.02 Hz and neurons were voltage clamped at −70 mV. The recording pipettes (3-5 MΩ) were filled with solution containing (mM) 145 K-gluconate, 5 NaCl, 1 MgCl2, 0.2 EGTA, 10 HEPES, 2 Mg-ATP, and 0.1 Na3-GTP (adjusted to pH 7.2 with KOH). After obtaining stable EPSCs for 10 min, three kinds of LTP induction paradigms were used within 12 min after establishing the whole-cell configuration to prevent wash out effect on LTP induction (Tsvetkov et al., 2002). The first protocol involved paired presynaptic 80 pulses at 2 Hz with postsynaptic depolarization at +30 mV (referred to as pairing training). The second involved paired 3 presynaptic stimuli that caused 3 EPSPs (10 ms ahead) with 3 postsynaptic APs at 30 Hz, paired 15 times every 5 s (named as EPSPs-APs protocol). The third involved theta-burst stimulation (5 trains of burst with 4 pulses at 100 Hz, at 200 ms interval; repeated 4 times at intervals of 10 s; named as TBS). The NMDAR-mediated component of EPSCs was pharmacologically isolated in Mg^2+-free ACSF containing: CNQX (20 μM), glycine (1 μM) and picrotoxin (100 μM). The patch electrodes contained (in mM) 102 cesium gluconate, 5 TEA-chloride, 3.7 NaCl, 11 BAPTA, 0.2 EGTA, 20 HEPES, 2 MgATP, 0.3 NaGTP, and 5 QX-314 chloride (adjusted to pH 7.2 with CsOH). Neurons were voltage clamped at −60 mV and NMDARs-mediated EPSCs were evoked at 0.05 Hz. Picrotoxin (100 μM) was always present to block GABAA receptor-mediated inhibitory synaptic currents. The access resistance was 15-30 MΩ and was monitored throughout the experiment. […] Results are expressed as means±SEM. […]

| Molecule | synaptic responses after pairing training (LTP), % of baseline ([1]; 0.3 μM) | effect on LTP induced by pairing training ([1]; 0.3 μM) | synaptic responses after pairing training (LTP), % of baseline ([1]; 3 μM) | effect on LTP induced by pairing training ([1]; 3 μM) | LTP vs control siRNA electroporated neurons ([2]; FIG. 7D) | potentiation (LTP) vs control siRNA electroporated neurons ([2]; TBS) | potentiation (LTP) vs control siRNA electroporated neurons ([2]; pairing training protocol) |
| --- | --- | --- | --- | --- | --- | --- | --- |
| C[C@@H](CN1CCC(Cc2ccccc2)CC1)[C@@H](O)c1ccc(O)cc1 [Ro25-6981] | 132.8±7.4% | partially depressed | 126.8±7.5% | partially depressed |  |  |  |
| NR2B siRNA: siRNA corresponding to NR2B, sense 5′-GGAUGAGUCCUCCAUGUUCtt-3′, antisense 5′-GAACAUGGAGGACUCAUCCtt-3′, Silencer Pre-designed siRNA ID #61879, Ambion (sense GGAUGAGUCCUCCAUGUUCTT; antisense GAACAUGGAGGACUCAUCCTT; chemistry not given here) |  |  |  |  | Smaller LTP | significantly reduced | significantly reduced |
